Measured values from ChEMBL document CHEMBL5370563, “Molecular Networking-Guided Isolation of Cyclopentapeptides from the Hydrothermal Vent Sediment Derived Fungus Aspergillus pseudoviridinutans TW58-5 and Their Anti-inflammatory Effects” (J Nat Prod, 2023).
Calls of active or inactive are those of the source. The calls are words filed in the database; no cut-off is given here.

How the values were obtained:
RAW264.7 [1] = experiment: Antiinflammatory activity in LPS-induced mouse RAW264.7 cells assessed as inhibition of NO production at 20 uM measured after 24 hrs by Griess reagent based assay; format: functional, cell-based
RAW264.7 [2] = experiment: Cytotoxicity against LPS-induced mouse RAW264.7 cells assessed as reduction in cell viability at 20 uM incubated for 24 hrs by MTT assay; format: toxicity, cell-based; conditions: raw264.7, 24 h
RAW264.7 [3] = experiment: Antiinflammatory activity in LPS-induced mouse RAW264.7 cells assessed as inhibition of NO production measured after 24 hrs by Griess reagent based analysis; format: functional, cell-based; conditions: dose 0.1-20 µM
RAW264.7 [4] = experiment: Antiinflammatory activity in LPS-induced mouse RAW264.7 cells assessed as reduction in iNOS protein expression at 20 uM measured after 24 hrs by Western blot analysis; format: functional, cell-based
RAW264.7 [5] = experiment: Antiinflammatory activity in LPS-induced mouse RAW264.7 cells assessed as inhibition of NLRP3 protein expression at 20 uM measured after 24 hrs by Western blot analysis; format: functional, cell-based

Structure (SMILES)	Activity (RAW264.7 [1])	Activity (RAW264.7 [2])	Activity (RAW264.7 [3])	Activity (RAW264.7 [4])	Activity (RAW264.7 [5])
CC[C@H](C)[C@H]1NC(=O)CNC(=O)[C@H](CCC(C)C)NC(=O)c2cccc(O)c2NC(=O)[C@H]([C@H](C)c2ccc(OC)cc2)NC1=O	Active	Non-Toxic			
CC[C@@H](C)[C@H]1NC(=O)CNC(=O)[C@H](CC(C)C)NC(=O)c2cccc(O)c2NC(=O)[C@H]([C@H](C)c2ccc(OC)cc2)NC1=O	Active	Non-Toxic			
COc1ccc([C@@H](C)[C@@H]2NC(=O)[C@@H](C(C)C)NC(=O)CNC(=O)[C@H](Cc3ccccc3)NC(=O)c3cccc(O)c3NC2=O)cc1	Active	Non-Toxic			
COc1ccc([C@@H](C)[C@@H]2NC(=O)[C@@H](CC(C)C)NC(=O)CNC(=O)[C@@H](Cc3ccccc3)NC(=O)c3cccc(O)c3NC2=O)cc1	Active	Non-Toxic	Dose-Dependent Effect	Active	Active
COc1ccc([C@@H](C)[C@@H]2NC(=O)[C@@H](CC(C)C)NC(=O)CNC(=O)[C@H](CCC(C)C)NC(=O)c3cccc(O)c3NC2=O)cc1	Active	Non-Toxic			
COc1ccc([C@@H](C)[C@@H]2NC(=O)[C@@H](C(C)C)NC(=O)CNC(=O)[C@H](CCC(C)C)NC(=O)c3cccc(O)c3NC2=O)cc1	Active	Non-Toxic			
CC[C@H](C)[C@H]1NC(=O)CNC(=O)[C@H](Cc2ccccc2)NC(=O)c2cccc(O)c2NC(=O)[C@H]([C@H](C)c2ccc(OC)cc2)NC1=O	Active	Non-Toxic			
